Experimental data published in ChEMBL document CHEMBL6182926, “Design, Synthesis, and Biological Activity Evaluation of Deuterated Diphenyl Azole Alcohol-Based CYP51 Inhibitors” (J Med Chem, 2025).
Values after ≈ are worked out from the molar mass of the structure shown. Active and inactive are the calls of the source. The calls are words filed in the database; no cut-off is given here.

Experiments:
[1] = tested on: Cell membrane; assay: Antifungal activity against Candida albicans SC5314 assessed as reduction in Eburicol at 4 ug/ml measured after 18 hrs incubation by gas chromatography-mass spectrometry (GCMS) analysis; assay type: subcellular; set-up: scale not given: the % may be the effect or the level left; settings: dose 4.0 µg/ml
[2] = tested on: Cryptococcus neoformans; assay: Antifungal activity against Cryptococcus neoformans CGMCC 2.3161 assessed as reduction in ergosterol at 8 ug/ml measured after 18 hrs incubation by gas chromatography-mass spectrometry (GCMS) analysis (reference value: 94.48%); assay type: functional; set-up: scale not given: the % may be the effect or the level left; settings: dose 8 µg/ml
[3] = tested on: Pichia kudriavzevii; assay: Fungicidal activity against Candida krusei AS 2.1045 assessed as concentration of colonies (< 5) measured after 48 hrs incubation; assay type: functional
[4] = tested on: Cryptococcus neoformans; assay: Antifungal activity against Cryptococcus neoformans CGMCC 2.3161 assessed as reduction in Eburicol at 8 ug/ml measured after 18 hrs incubation by gas chromatography-mass spectrometry (GCMS) analysis; assay type: functional; set-up: scale not given: the % may be the effect or the level left; settings: dose 8 µg/ml
[5] = tested on: Candida tropicalis; assay: Antifungal activity against Candida tropicalis CGMCC 2.3739 assessed as inhibition of visible growth; assay type: functional
[6] = tested on: Candida albicans; assay: Antifungal activity against Candida albicans SC5314 assessed as reduction in other sterol at 4 ug/ml measured after 18 hrs incubation by gas chromatography-mass spectrometry (GCMS) analysis (reference value: 2.59%); assay type: functional; set-up: scale not given: the % may be the effect or the level left; settings: dose 4 µg/ml
[7] = tested on: Cryptococcus neoformans; assay: Antifungal activity against Cryptococcus neoformans CGMCC 2.3161 assessed as reduction in Obtusifoliol at 8 ug/ml measured after 18 hrs incubation by gas chromatography-mass spectrometry (GCMS) analysis; assay type: functional; set-up: scale not given: the % may be the effect or the level left; settings: dose 8 µg/ml
[8] = Cytotoxicity against human SH-SY5Y cells measured after 72 hrs by MTT assay; assay type: toxicity, cell-based
[9] = tested on: Aspergillus fumigatus; assay: Antifungal activity against Aspergillus fumigatus CGMCC 3.7795 assessed as inhibition of visible growth; assay type: functional
[10] = tested on: Cryptococcus neoformans; assay: Fungicidal activity against Cryptococcus neoformans CGMCC 2.3161 assessed as concentration of colonies (< 5) measured after 48 hrs incubation; assay type: functional
[11] = tested on: Cryptococcus neoformans; assay: Antifungal activity against Cryptococcus neoformans CGMCC 2.3161 assessed as reduction in other sterol at 8 ug/ml measured after 18 hrs incubation by gas chromatography-mass spectrometry (GCMS) analysis (reference value: 2.20%); assay type: functional; set-up: scale not given: the % may be the effect or the level left; settings: dose 8 µg/ml
[12] = tested on: Candida albicans; assay: In vivo anti-resistant activity against fluconazole-resistant Candida albicans strain 17# infected in cyclophosphamide-immunosuppressed ICR mouse model assessed as reduction in fungal burden in kidney at 1 to 5 mg/kg, oral gavage for 5 days post infection; assay type: functional, organism-based; settings: dose 1-5 mg/kg, time 5.0 day
[13] = tested on: Candida albicans; assay: Antifungal activity against Candida albicans SC 5314 assessed as inhibition of visible growth; assay type: functional
[14] = tested on: Nakaseomyces glabratus; assay: Antifungal activity against Clinical isolate Candida glabrata assessed as inhibition of visible growth; assay type: functional
[15] = tested on: Nakaseomyces glabratus; assay: Fungicidal activity against Clinical isolate Candida glabrata assessed as concentration of colonies (< 5) measured after 48 hrs incubation; assay type: functional
[16] = tested on: Candida albicans; assay: Antifungal activity against Candida albicans SC5314 assessed as reduction in Obtusifoliol at 4 ug/ml measured after 18 hrs incubation by gas chromatography-mass spectrometry (GCMS) analysis; assay type: functional; set-up: scale not given: the % may be the effect or the level left; settings: dose 4 µg/ml
[17] = tested on: Candida albicans; assay: Antifungal activity against Candida albicans SC5314 assessed as reduction in Lanosterol at 4 ug/ml measured after 18 hrs incubation by gas chromatography-mass spectrometry (GCMS) analysis; assay type: functional; set-up: scale not given: the % may be the effect or the level left; settings: dose 4 µg/ml
[18] = Cytotoxicity against human HUVEC cells measured after 72 hrs by MTT assay; assay type: toxicity, cell-based
[19] = tested on: Candida albicans; assay: Antifungal activity against Candida albicans CPCC 400616 assessed as inhibition of visible growth; assay type: functional
[20] = tested on: Cryptococcus neoformans; assay: Antifungal activity against Cryptococcus neoformans CGMCC 2.3161 assessed as inhibition of visible growth; assay type: functional
[21] = tested on: Candida albicans; assay: Antifungal activity against Candida albicans SC5314 assessed as reduction in ergosterol at 4 ug/ml measured after 18 hrs incubation by gas chromatography-mass spectrometry (GCMS) analysis (reference value: 96.72%); assay type: functional; set-up: scale not given: the % may be the effect or the level left; settings: dose 4 µg/ml
[22] = tested on: Candida parapsilosis; assay: Antifungal activity against Candida parapsilosis GIM 2.190 assessed as inhibition of visible growth; assay type: functional; settings: Lodderomyces parapsilosis
[23] = tested on: Candida albicans; assay: Antifungal activity against Candida albicans SC5314 assessed as reduction in 14alpha-methylsterols at 4 ug/ml measured after 18 hrs incubation by gas chromatography-mass spectrometry (GCMS) analysis (reference value: 0.69%); assay type: functional; set-up: scale not given: the % may be the effect or the level left; settings: dose 4 µg/ml
[24] = tested on: Nakaseomyces glabratus; assay: Inhibition of biofilm formation in clinical isolate Candida glabrata assessed as inhibition of metabolic activity of biofilm measured after 24 hrs by XTT assay; assay type: functional
[25] = tested on: Cryptococcus neoformans; assay: Inhibition of biofilm formation in Cryptococcus neoformans CGMCC 2.3161 assessed as inhibition of metabolic activity of biofilm measured after 24 hrs by XTT assay; assay type: functional
[26] = tested on: Cell membrane; assay: Induction of loss of cell membrane integrity in Candida albicans SC5314 assessed as irregular cell morphology at 16 microg/ml measured after 48 hrs incubation by transmission electron microscopy; assay type: subcellular; settings: dose 16.0 µg/ml
[27] = tested on: Pichia kudriavzevii; assay: Antifungal activity against Candida krusei AS 2.1045 assessed as inhibition of visible growth; assay type: functional

OC(Cn1cncn1)(Cn1cncn1)c1ccc(F)cc1F [FLUCONAZOLE]
Activity [1]: 49.5%
Activity [2]: 86.73%
MFC [3]: > 128 µg/mL
Activity [4]: 5.92%
MIC80 [5]: 0.25 µg/mL (≈ 0.816 µM)
Activity [6]: 13.1%
Activity [7]: 3.85%
IC50 at 72 h [8]: > 100 µM
MIC80 [9]: > 64 µg/mL
MFC [10]: > 128 µg/mL
Activity [11]: 3.51%
Activity [12]: inactive
MIC80 [13]: 0.25 µg/mL (≈ 0.816 µM)
MIC80 [14]: 32 µg/mL (≈ 104 µM)
MFC [15]: > 128 µg/mL
Activity [16]: 18.55%
Activity [17]: 18.35%
IC50 at 72 h [18]: > 40 µM
MIC80 [19]: 0.5 µg/mL (≈ 1.63 µM)
MIC80 [20]: 16 µg/mL (≈ 52.2 µM)
Activity [21]: 3.81%
MIC80 [22]: 1 µg/mL (≈ 3.27 µM)
Activity [23]: 8.46%
MIC50 [24]: 0.12 µg/mL (≈ 0.392 µM)
MIC50 [25]: 32 µg/mL (≈ 104 µM)
Activity [26]: Active
MIC80 [27]: 8 µg/mL (≈ 26.1 µM)
